Laboratory results reported in patent publication US9133207B2, “Tetrandrine derivatives with substituted 5-carbon, preparation method and use thereof” (Hangzhou Bensheng Pharmaceutical Co., Ltd., priority 2011, dated 2015).
Values after ≈ are worked out from the molar mass of the structure shown.

How the values were obtained:
[1] = tested on: U87 MG (malignant glioma cell); assay: Solid tumor cell growth inhibition, MTT, 72 h (Example 7); assay type: cell-based; conditions: Homo sapiens, U-87 MG
Method in brief: (§1)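 A 72 h MTT assay: cells (4000/well, 24 h pre-culture in DMEM high glucose with 10% FBS at 37 °C, 5% CO2) were treated with graded concentrations of derivatives, and viability was calculated as % of untreated control.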

[2] = tested on: Hela (human cervical cancer cell); assay: as above; assay type: cell-based; conditions: Homo sapiens; 72 h, MTT, Hela
Method in brief: as §1

[3] = tested on: SK-OV-3 (ovarian cancer cell); assay: as above; assay type: cell-based; conditions: Homo sapiens
Method in brief: as §1

[4] = tested on: Becap37 (human breast cancer cell); assay: as above; assay type: cell-based; conditions: Homo sapiens; 72 h, MTT, Becap-37
Method in brief: as §1

A549 (human lung cancer) = assay: as above; assay type: cell-based; conditions: Homo sapiens; 72 h, MTT, A549
Method in brief: as §1

[5] = tested on: RKO (human colon adenocarcinoma cell); assay: as above; assay type: cell-based; conditions: Homo sapiens; 72 h, MTT, RKO
Method in brief: as §1

[6] = tested on: MGC 803 (human gastric cancer cell); assay: as above; assay type: cell-based; conditions: Homo sapiens
Method in brief: as §1

[7] = tested on: CNE (nasopharyngeal carcinoma cell); assay: as above; assay type: cell-based; conditions: Homo sapiens
Method in brief: as §1

[8] = tested on: Huh7 (human liver cancer cell); assay: as above; assay type: cell-based; conditions: Homo sapiens; 72 h, MTT, Huh-7
Method in brief: as §1

[9] = tested on: RPMI8226 (multiple myeloma); assay: Multiple myeloma cell growth inhibition, MTT, 72 h (Example 6); assay type: cell-based, human; conditions: Homo sapiens, RPMI-8226; 72 h, MTT, RPMI8226
Method in brief: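 RPMI8226 cells (6000 per well) in RPMI 1640 with 10% FBS were exposed to a range of tetrandrine derivative concentrations for 72 h at 37 °C under 5% CO2. Viable cell concentration was then measured by MTT.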

[10] = tested on: K562/adr (drug-resistant, chronic myeloid leukemia, CML); assay: Leukemia cell growth inhibition, MTT, 72 h (Example 5); assay type: cell-based, human; conditions: Homo sapiens, K562/Adr; 72 h, MTT
Method in brief: (§2)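 Growth inhibition by tetrandrine derivatives, dosed at several concentrations, was assessed via MTT after a 72-hour culture at 37° C.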

[11] = tested on: H9 (acute lymphoblastic leukemia, ALL); assay: as above; assay type: cell-based, human; conditions: Homo sapiens; 72 h, MTT
Method in brief: as §2

[12] = tested on: Kasumi-1 (acute myeloid leukemia M2 type, AML-M2); assay: as above; assay type: cell-based, human; conditions: Homo sapiens, Kasumi 1
Method in brief: as §2

[13] = tested on: NB4 (acute promyelocytic leukemia, AML); assay: as above; assay type: cell-based, human; conditions: Homo sapiens; 72 h, MTT
Method in brief: as §2

[14] = tested on: Jurkat (acute lymphoblastic leukemia, ALL); assay: as above; assay type: cell-based, human; conditions: Homo sapiens, Jurkat; 72 h, MTT
Method in brief: as §2

MG63 (osteosarcoma) = assay: Solid tumor cell growth inhibition, MTT, 72 h (Example 7); assay type: cell-based, human; conditions: Homo sapiens; 72 h, MTT, MG-63
Method in brief: as §1

PC-3 (prostate cancer) = assay: as above; assay type: cell-based, human; conditions: for IC50 / IC90: Homo sapiens, 72 h, MTT, PC-3
Method in brief: as §1

[15] = tested on: PANC-1 (pancreatic cancer); assay: as above; assay type: cell-based, human; conditions: for IC50 / IC90: Homo sapiens, 72 h, MTT, PANC-1
Method in brief: as §1

[16] = tested on: Hep-2 (laryngeal carcinoma); assay: as above; assay type: cell-based, human; conditions: Homo sapiens; 72 h, MTT, Hep 2
Method in brief: as §1

[17] = tested on: CaES-17 (esophageal cancer cell); assay: as above; assay type: cell-based, human; conditions: Homo sapiens, CaEs17; 72 h, MTT, CAES-17
Method in brief: as §1

COc1ccc2cc1Oc1ccc(cc1)C[C@H]1c3cc(c(OC)cc3CCN1C)Oc1c(OC)c(OC)c(CN3CCC(C#N)CC3)c3c1[C@H](C2)N(C)CC3 [BS-TE-323]
IC50 [1]: 0.98 µg/mL (≈ 1.32 µM)
IC90 [1]: 4.02 µg/mL (≈ 5.4 µM)
IC50 [2]: 1.2 µg/mL (≈ 1.61 µM)
IC90 [2]: 3.89 µg/mL (≈ 5.22 µM)
IC50 [3]: 8 µg/mL (≈ 10.7 µM)
IC90 [3]: > 16 µg/mL
IC50 [4]: 3.2 µg/mL (≈ 4.3 µM)
IC90 [4]: 8 µg/mL (≈ 10.7 µM)
IC50 (A549 (human lung cancer)): 6.2 µg/mL (≈ 8.32 µM)
IC90 (A549 (human lung cancer)): 16 µg/mL (≈ 21.5 µM)
IC50 [5]: 1.07 µg/mL (≈ 1.44 µM)
IC90 [5]: 2.6 µg/mL (≈ 3.49 µM)
IC50 [6]: 3.04 µg/mL (≈ 4.08 µM)
IC90 [6]: 8 µg/mL (≈ 10.7 µM)
IC50 [7]: 4.8 µg/mL (≈ 6.44 µM)
IC90 [7]: 10.4 µg/mL (≈ 14 µM)
IC50 [8]: 1.33 µg/mL (≈ 1.79 µM)
IC90 [8]: 3.88 µg/mL (≈ 5.21 µM)
IC50 [9]: 0.12 µg/mL (≈ 0.161 µM)
IC90 [9]: 3.88 µg/mL (≈ 5.21 µM)
IC50 [10]: 0.21 µg/mL (≈ 0.282 µM)
IC90 [10]: 2.16 µg/mL (≈ 2.9 µM)
IC50 [11]: 0.95 µg/mL (≈ 1.28 µM)
IC90 [11]: 2.13 µg/mL (≈ 2.86 µM)
IC50 [12]: 1.23 µg/mL (≈ 1.65 µM)
IC90 [12]: 4.6 µg/mL (≈ 6.18 µM)
IC50 [13]: 1.5 µg/mL (≈ 2.01 µM)
IC90 [13]: 4.5 µg/mL (≈ 6.04 µM)
IC50 [14]: 1.28 µg/mL (≈ 1.72 µM)
IC90 [14]: 9 µg/mL (≈ 12.1 µM)
IC50 (MG63 (osteosarcoma)): 2.6 µg/mL (≈ 3.49 µM)
IC90 (MG63 (osteosarcoma)): 5.5 µg/mL (≈ 7.38 µM)
IC50 (PC-3 (prostate cancer)): 1.88 µg/mL (≈ 2.52 µM)
IC90 (PC-3 (prostate cancer)): 3.83 µg/mL (≈ 5.14 µM)
IC50 [15]: 2.46 µg/mL (≈ 3.3 µM)
IC90 [15]: 7.1 µg/mL (≈ 9.53 µM)
IC50 [16]: 2.49 µg/mL (≈ 3.34 µM)
IC90 [16]: 5.59 µg/mL (≈ 7.5 µM)
IC50 [17]: 3.6 µg/mL (≈ 4.83 µM)
IC90 [17]: 23 µg/mL (≈ 30.9 µM)

COc1ccc2cc1Oc1ccc(cc1)C[C@H]1c3cc(c(OC)cc3CCN1C)Oc1c(OC)c(OC)c(COC(=O)c3cccs3)c3c1[C@H](C2)N(C)CC3 [BS-TE-215]
IC50 [1]: 3.14 µg/mL (≈ 4.12 µM)
IC90 [1]: 8 µg/mL (≈ 10.5 µM)
IC50 [2]: 6.52 µg/mL (≈ 8.55 µM)
IC90 [2]: 13 µg/mL (≈ 17.1 µM)
IC50 [3]: 7.5 µg/mL (≈ 9.83 µM)
IC90 [3]: > 16 µg/mL
IC50 [4]: 8.3 µg/mL (≈ 10.9 µM)
IC90 [4]: 15 µg/mL (≈ 19.7 µM)
IC50 (A549 (human lung cancer)): 11.9 µg/mL (≈ 15.6 µM)
IC90 (A549 (human lung cancer)): > 16 µg/mL
IC50 [5]: 6.04 µg/mL (≈ 7.92 µM)
IC90 [5]: 9.22 µg/mL (≈ 12.1 µM)
IC50 [6]: 5.78 µg/mL (≈ 7.58 µM)
IC90 [6]: 8 µg/mL (≈ 10.5 µM)
IC50 [7]: 6.97 µg/mL (≈ 9.14 µM)
IC90 [7]: 12.2 µg/mL (≈ 16 µM)
IC50 [8]: 3.54 µg/mL (≈ 4.64 µM)
IC90 [8]: 9.62 µg/mL (≈ 12.6 µM)
IC50 [9]: 0.87 µg/mL (≈ 1.14 µM)
IC90 [9]: 5.13 µg/mL (≈ 6.72 µM)
IC50 [10]: 2.18 µg/mL (≈ 2.86 µM)
IC90 [10]: 8.89 µg/mL (≈ 11.7 µM)
IC50 [11]: 4.86 µg/mL (≈ 6.37 µM)
IC90 [11]: 7.6 µg/mL (≈ 9.96 µM)
IC50 [12]: 4.92 µg/mL (≈ 6.45 µM)
IC90 [12]: 15.5 µg/mL (≈ 20.3 µM)
IC50 [13]: 2.6 µg/mL (≈ 3.41 µM)
IC90 [13]: 4 µg/mL (≈ 5.24 µM)
IC50 [14]: 4.64 µg/mL (≈ 6.08 µM)
IC90 [14]: 10.9 µg/mL (≈ 14.3 µM)
IC50 (MG63 (osteosarcoma)): 6.2 µg/mL (≈ 8.13 µM)
IC90 (MG63 (osteosarcoma)): 10.4 µg/mL (≈ 13.6 µM)
IC50 (PC-3 (prostate cancer)): 7.08 µg/mL (≈ 9.28 µM)
IC90 (PC-3 (prostate cancer)): 9 µg/mL (≈ 11.8 µM)
IC50 [15]: 5.11 µg/mL (≈ 6.7 µM)
IC90 [15]: 15 µg/mL (≈ 19.7 µM)
IC50 [16]: 9.9 µg/mL (≈ 13 µM)
IC90 [16]: 22.2 µg/mL (≈ 29.1 µM)
IC50 [17]: 8.69 µg/mL (≈ 11.4 µM)
IC90 [17]: 27 µg/mL (≈ 35.4 µM)

COc1ccc2cc1Oc1ccc(cc1)C[C@H]1c3cc(c(OC)cc3CCN1C)Oc1c(OC)c(OC)c(CN(C)[C@@H](C)c3ccccc3)c3c1[C@H](C2)N(C)CC3 [BS-TE-317]
IC50 [1]: 0.5 µg/mL (≈ 0.649 µM)
IC90 [1]: 1.81 µg/mL (≈ 2.35 µM)
IC50 [2]: 0.94 µg/mL (≈ 1.22 µM)
IC90 [2]: 2.02 µg/mL (≈ 2.62 µM)
IC50 [3]: 2 µg/mL (≈ 2.6 µM)
IC90 [3]: 8.1 µg/mL (≈ 10.5 µM)
IC50 [4]: 1.3 µg/mL (≈ 1.69 µM)
IC90 [4]: 3.2 µg/mL (≈ 4.16 µM)
IC50 (A549 (human lung cancer)): 2.2 µg/mL (≈ 2.86 µM)
IC90 (A549 (human lung cancer)): 5.8 µg/mL (≈ 7.53 µM)
IC50 [5]: 1.15 µg/mL (≈ 1.49 µM)
IC90 [5]: 2.49 µg/mL (≈ 3.23 µM)
IC50 [6]: 0.73 µg/mL (≈ 0.948 µM)
IC90 [6]: 1 µg/mL (≈ 1.3 µM)
IC50 [7]: 2.3 µg/mL (≈ 2.99 µM)
IC90 [7]: 3.5 µg/mL (≈ 4.55 µM)
IC50 [8]: 1.55 µg/mL (≈ 2.01 µM)
IC90 [8]: 3.72 µg/mL (≈ 4.83 µM)
IC50 [9]: 0.06 µg/mL (≈ 0.0779 µM)
IC90 [9]: 1.49 µg/mL (≈ 1.94 µM)
IC50 [10]: 0.36 µg/mL (≈ 0.468 µM)
IC90 [10]: 1.58 µg/mL (≈ 2.05 µM)
IC50 [11]: 0.7 µg/mL (≈ 0.909 µM)
IC90 [11]: 1.11 µg/mL (≈ 1.44 µM)
IC50 [12]: 0.88 µg/mL (≈ 1.14 µM)
IC90 [12]: 3.57 µg/mL (≈ 4.64 µM)
IC50 [13]: 0.9 µg/mL (≈ 1.17 µM)
IC90 [13]: 2.1 µg/mL (≈ 2.73 µM)
IC50 [14]: 1.13 µg/mL (≈ 1.47 µM)
IC90 [14]: 4.75 µg/mL (≈ 6.17 µM)
IC50 (MG63 (osteosarcoma)): 1.3 µg/mL (≈ 1.69 µM)
IC90 (MG63 (osteosarcoma)): 1.9 µg/mL (≈ 2.47 µM)
IC50 (PC-3 (prostate cancer)): 1.59 µg/mL (≈ 2.06 µM)
IC90 (PC-3 (prostate cancer)): 2.14 µg/mL (≈ 2.78 µM)
anti-PC-3 activity increase over tetrandrine (PC-3 (prostate cancer); compared with tetrandrine): ~4 fold
IC50 [15]: 1.4 µg/mL (≈ 1.82 µM)
IC90 [15]: 4.18 µg/mL (≈ 5.43 µM)
anti-PANC-1 activity increase over tetrandrine ([15]; compared with tetrandrine): 2 fold
IC50 [16]: 1.96 µg/mL (≈ 2.55 µM)
IC90 [16]: 4.25 µg/mL (≈ 5.52 µM)
IC50 [17]: 1.61 µg/mL (≈ 2.09 µM)
IC90 [17]: 7.4 µg/mL (≈ 9.61 µM)
